In US10087188B2, “Benzamide imidazopyrazine Btk inhibitors” (MERCK SHARP & DOHME CORP., priority 2014, dated 2018):

Columns and labels:
[1] = target: BTK enzyme (recombinant full-length BTK, hBTK) (Homo sapiens (Human), UniProt Q06187); test: Btk enzyme activity assay, LANCE TR-FRET; assay type: biochemical; details: 50 pM hBTK, 2 μM biotin-A5-peptide, 25 μM ATP; 60 minute compound & enzyme incubation; read-out: BTK binding IC50
Procedure: Btk Enzyme Activity Assay Methods
BTK enzymatic activity was determined with the LANCE (Lanthanide Chelate Excite) TR-FRET (Time-resolved fluorescence resonance energy transfer) assay. […] After 60 minutes incubation with detection reagents, reaction plates were read on a PerkinElmer EnVision plate reader using standard TR-FRET protocol.

HeLa cells = test: [3H] Adenosine uptake assay; assay type: cell-based; details: Homo sapiens, HeLa, accumulation of tritiated adenosine into HeLa cells; compound concentration range 10 μM to 0.032 nM; read-out: ADU inhibition IC50 (adenosine uptake inhibition potency)
Method in brief: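 HeLa cells in HBSS + 5% FBS preincubated 30 min at ambient temperature with compound (0.25% DMSO), then [3H]adenosine (500 nM stock) added for 60 min. Uptake measured by scintillation proximity counting; IC50 from 4-parameter fit of counts vs log concentration.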

BTK enzyme (recombinant full-length BTK, hBTK), sequence (Q06187 whole entry): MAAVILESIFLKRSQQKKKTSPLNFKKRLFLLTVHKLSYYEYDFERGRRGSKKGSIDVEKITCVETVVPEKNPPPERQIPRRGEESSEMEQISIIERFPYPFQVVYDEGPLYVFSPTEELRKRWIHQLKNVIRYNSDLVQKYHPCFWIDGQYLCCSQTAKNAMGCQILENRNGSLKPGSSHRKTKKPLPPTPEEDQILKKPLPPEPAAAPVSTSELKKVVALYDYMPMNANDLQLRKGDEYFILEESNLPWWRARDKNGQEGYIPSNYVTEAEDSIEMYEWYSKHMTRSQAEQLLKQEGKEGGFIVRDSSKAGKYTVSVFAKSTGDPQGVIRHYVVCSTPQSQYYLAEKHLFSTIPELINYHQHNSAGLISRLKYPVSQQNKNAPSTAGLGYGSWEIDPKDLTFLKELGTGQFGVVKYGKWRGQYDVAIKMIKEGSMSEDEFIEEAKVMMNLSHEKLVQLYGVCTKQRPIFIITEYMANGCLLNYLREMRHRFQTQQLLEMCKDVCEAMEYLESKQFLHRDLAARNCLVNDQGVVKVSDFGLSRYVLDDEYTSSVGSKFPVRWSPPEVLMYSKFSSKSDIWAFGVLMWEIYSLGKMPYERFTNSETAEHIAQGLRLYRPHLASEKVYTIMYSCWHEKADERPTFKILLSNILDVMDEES

Structure (SMILES)	IC50 [1]	IC50 (HeLa cells)
CCOc1cc(C(=O)Nc2cc(C(F)(F)F)ccn2)ccc1-c1nc([C@@]2(C)CC[C@@](C)(C(=O)O)C2)n2ccnc(N)c12 [Example 86, (1R,3S)-3-[8-amino-1-(2-ethoxy-4-{[4-(trifluoromethyl)pyridin-2-yl]carbamoyl}phenyl)imidazo[1,5-a]pyrazin-3-yl]-1,3-dimethylcyclopentane carboxylic acid]	0.0042 µM	10 µM
CCOc1cc(C(=O)Nc2cc(C(F)(F)F)ccn2)ccc1-c1nc([C@H]2C[C@H]3CC[C@@H](C2)[C@H]3C(=O)O)n2ccnc(N)c12 [Example 104, (3-endo,8-syn)-3-[8-amino-1-(2-ethoxy-4-{[4-(trifluoromethyl)pyridin-2-yl]carbamoyl}phenyl)imidazo[1,5-a]pyrazin-3-yl]bicyclo[3.2.1] octane-8-carboxylic acid]	0.0052 µM	10 µM
CCOc1cc(C(=O)Nc2cc(C(F)(F)F)ccn2)c(F)cc1-c1nc(C2(C)CCC(C)(C(=O)O)CC2)n2ccnc(N)c12 (centres unmarked) [Example 120, 4-[8-amino-1-(2-ethoxy-5-fluoro-4-{[4-(trifluoromethyl)pyridin-2-yl]carbamoyl}phenyl)imidazo[1,5-a]pyrazin-3-yl]-1,4-dimethylcyclohexane-carboxylic acid]	0.004 µM	10 µM

Now those with a lower IC50 [1], led by results:

IC50 [1]	IC50 (HeLa cells)	Structure (SMILES)
0.0018 µM	8.74 µM	C[C@@]1(C(=O)O)CCN(c2nc(-c3ccc(C(=O)Nc4cc(C(F)(F)F)ccn4)cc3)c3c(N)nccn23)C1 [Example 44, (3R)-1-[8-amino-1-(4-{[4-(trifluoromethyl)pyridin-2-yl]carbamoyl}phenyl)imidazo[1,5-a]pyrazin-3-yl]-3-methylpyrrolidine-3-carboxylic acid]
0.0014 µM	10 µM	CCOc1cc(C(=O)Nc2cc(C(F)(F)F)ccn2)ccc1-c1nc([C@]2(C)CC[C@@](C)(C(=O)O)C2)n2ccnc(N)c12 [Example 85, (1R,3R)-3-[8-amino-1-(2-ethoxy-4-{[4-(trifluoromethyl)pyridin-2-yl]carbamoyl}phenyl)imidazo[1,5-a]pyrazin-3-yl]-1,3-dimethylcyclopentane carboxylic acid]
0.00091 µM	10 µM	COc1cc(C(=O)Nc2cc(C(F)(F)F)ccn2)cc(F)c1-c1nc(C23CCC(C(=O)O)(CC2)CC3)n2c(F)cnc(N)c12 [Example 122, 4-[8-amino-5-fluoro-1-(2-fluoro-6-methoxy-4-{[4-(trifluoromethyl)pyridin-2-yl]carbamoyl}phenyl)imidazo[1,5-a]pyrazin-3-yl]bicyclo[2.2.2] octane-1-carboxylic acid]
0.00026 µM	8.84 µM	COc1cc(C(=O)Nc2cc(C(F)(F)F)ccn2)cc(F)c1-c1nc([C@@H]2CC[C@](C)(C(=O)O)C2(C)C)n2ccnc(N)c12 [Example 115, (1S,3R)-3-[8-amino-1-(2-fluoro-6-methoxy-4-{[4-(trifluoromethyl)pyridin-2-yl]carbamoyl}phenyl)imidazo[1,5-a]pyrazin-3-yl]-1,2,2-trimethylcyclopentane carboxylic acid]
